Laboratory results from ChEMBL document CHEMBL1129821, “Synthesis and biological evaluation of non-polyene analogs of amphotericin B” (1997).
Values after ≈ are worked out from the molar mass of the structure shown.

Assays:
[1] = test system: Candida albicans; experiment: Minimum inhibitory concentration required for antifungal activity against Candida albicans(16820); format: functional
[2] = test system: Cryptococcus neoformans; experiment: Minimum inhibitory concentration required for antifungal activity against Cryptococcus neoformans (271A); format: functional

How did the MIC [1] turn out when `COC(=O)[C@H]1[C@@H]2C[C@@H](O[C@@H]3O[C@H](C)[C@@H](O)[C@H](N)[C@@H]3O)/C=C/C=C/C=C/C=C/C=C/C=C/C=C/[C@H](C)[C@@H](O)[C@@H](C)[C@H](C)OC(=O)C[C@H](O)C[C@H](O)CC[C@@H](O)[C@H](O)C[C@H](O)C[C@](O)(C[C@@H]1O)O2` [AMPHOTERICIN B ME ESTER] was run?
The MIC was 8000 µg/mL (≈ 8.53 mM).

What about the MIC [2] of the same compound?
Its MIC is 8000 µg/mL (≈ 8.53 mM).
